These results are taken from patent publication US20250304623A1, “PEPTIDES FOR INTRACELLULAR DELIVERY” (UNIVERSIDADE DE SANTIAGO DE COMPOSTELA, priority 2022, published 2025).

The subject of one test is Hela cells. The experiment in a line: EGFP mRNA delivery, robotic library screening, HeLa. The class given is cell-based. On the procedure: Cells were seeded in a 96 well plate the day before the experiment at a concentration of 50,000 cell/mL (100 μL/w) in DMEM+10% FBS+1% Gln-Abt. For robotic library screening, the delivery of EGFP-mRNA (from TriLink, fully substituted with 5-methoxyuridine, capped and polyadenylated; TriLink, CleanCap® EGFP mRNA (5moU), ref. L-7201) in six different cell lines was performed. Amphiphilic molecule stock solutions were prepared in DMSO as described above and diluted in DMEM to afford a range of concentrations. The solutions of EGFP-mRNA/amphiphilic molecule complexes were freshly prepared prior to the transfection experiments. 35 μL of the corresponding amphiphile were added to 10 μL of a solution of EGFP-mRNA at 10 ng/μL in DMEM. The mixture was shaken for 30 min at room temperature before the addition to the cells. The cell medium was aspirated, and cells were washed with PBS twice. Cells were covered with 39 μL of DMEM and 11 μL of the complex's solution were added to the cells and incubated for 4 h (final concentration of peptide=2.5, 5 and 10 μM; final concentration of EGFP-mRNA=25 ng/well). After the incubation, the medium was replaced by 100 μL of fresh DMEM supplemented with 10% FBS. The total EGFP fluorescence was quantified after 72 h in a well plate reader. Amphiphile transfection efficiency was compared and normalized to Lipofectamine® MessengerMax efficiency (value of 1 in Tables 1-5 and 7; double underlined numbers). All experiments were done in triplicate.
Tables 1-7: RLuc (pDNA) or EGFP (mRNA) expression levels were normalized to Lipofectamine reagents (value=1) and expressed as fold-times signal increase. In the case of siRNA, the siRNA treated cells fluorescence was compared with siMOCK control fluorescence, while Cas9-RNP mediated knockout was measured against the fluorescence of untreated cells. In both siRNA and Cas9-RNP, values are expressed as % fluorescence reduction. Amphiphile concentration was 5 μM in all cases. All experiments were performed in triplicate.
Tables 14-19 show the mean (triplicates) fluorescence intensity measured after the transfection of EGFP mRNA by different amphiphiles at different concentrations in a variety of cell lines. Background fluorescence values, accounted by untreated control cells, were subtracted for processing.

Test [1] has as its system Hek293 cells expressing EGFP. The test can be described thus: Cas9-RNP delivery against EGFP (gene editing, plate reader), Hek293. It is filed as cell-based. The procedure: To generate an EGFP expressing HeLa cell line, HeLa cells were transfected with EGFP pDNA (pEGFP-C1, Clontech) and stable transfectants were selected with 400 μg/mL of G-418 (Millipore). Green clones were selected by epifluorescence microscopy and tested for EGFP expression stability through several passages. […] All other EGFP-expressing cell lines were obtained in a similar way from parent non-EGFP-expressing cell lines.
Cells expressing EGFP were seeded in a 96 well plate the day before the experiment at a concentration of 50,000 cell/mL (100 μL/w) in DMEM+10% FBS+1% Gln-Abt. For robotic library screening, the delivery of Cas9-RNP against EGFP (RNP designed to knock-out the gene encoding for the enhanced green fluorescent protein (EGFP)) was performed. For RNP assembly, 9.2 μL of crRNA and 9.2 μL of tracrRNA were mixed in 211.6 μL of Nuclease-Free Duplex Buffer (IDT), incubated for 5 min at 95° C. and slowly cooled at rt (see I. Lostalé-Seijo, et al. Peptide/Cas9 nanostructures for ribonucleoprotein cell membrane transport and gene edition, Chem. Sci., 2017). Cas9 protein was dissolved in DMEM at a final concentration of 4 μM and equal volumes of the RNA complex and Cas9 were mixed and incubated for 5 min at rt. 75 μL of the corresponding amphiphile concentrations were added to 5 μL of RNP at 2 μM. The mixture was shaken for 30 min at room temperature before the addition to the cells. The cell medium was aspirated, and cells were washed twice with PBS. Cells were covered with 30 μL of DMEM and 20 μL of the RNP/amphiphile complexes were added to the cells (final peptide concentrations=2.5, 5 and 10 μM; final Cas9-RNP concentration=50 nM) and incubated for 4 h. After the incubation, the medium was replaced by 100 μL of fresh DMEM supplemented with 10% FBS. The total EGFP fluorescence was quantified after 72 h in a plate reader (FIG. 2, Table 1 (right) and Table 6). All experiments were done in triplicate. […]
Tables 26-31 show the mean (triplicates) percentage of gene editing, accounted by GFP fluorescence intensity decrease (% of reduction), measured after the transfection of Cas9-RNP by different amphiphiles at different concentrations in a variety of cell lines. Background values, accounted by untreated control cells, were subtracted for processing.

Starred links: 1 amine or outer side, 2 acyl side, 3 side chain; linkers in the order of their positions; H or OH if unused. Residues, ends and D or L forms follow the SMILES beside them. Groups on a side chain read outwards from the residue. *: point of attachment. Glutaryl = O=C(CCCC(=O)[*:2])[*:1]; NHNH2 = NN*

Consider “Ac-RK*LRRK*L-NH2 (Ac-RK(NHNH2)LRRK(NHNH2)L-NH2; not fully specified; printed as Ac-RK*LRRK*L-NH2; also: K*2,K*6: native or modified lysine (ε-amide to a linker)) [Peptide 7.2]”, for which the “mean fluorescence intensity (EGFP mRNA)” value turned out to be 268 with Hela cells (HeLa, Dodecanal, 2.5 μM); 341 in the test with Hela cells (HeLa, Dodecanal, 5 μM); 5194 with Hela cells (HeLa, Myristoleyl, 2.5 μM); 288 in the test on Hela cells (Hela, Dodecanal, 10 μM); 654 with Hela cells (Hela, Myristoleyl, 5 μM); 358 with Hela cells (Hela, Myristoleyl, 10 μM). Moreover, the “percentage of gene editing, GFP fluorescence intensity decrease (% of reduction)” value in test [1] (Dodecanal, 5 μM) was −21%; in test [1] (Dodecanal, 15 μM), −29%; in test [1] (Myristoleyl, 5 μM), −23%.
“Ac-RRLK*RLLRRLK*RLK*RRL-NH2 (Ac-RRLK(NHNH2)RLLRRLK(NHNH2)RLK(NHNH2)RRL-NH2; not fully specified; printed as Ac-RRLK*RLLRRLK*RLK*RRL-NH2; also: K*4,K*11,K*14: native or modified lysine (ε-amide to a linker)) [Peptide 17.3]”: the “mean fluorescence intensity (EGFP mRNA)” value is given as 43 in the test on Hela cells (HeLa, Dodecanal, 5 μM); 64 in the test with Hela cells (HeLa, Myristoleyl, 2.5 μM); −16 in the test on Hela cells (HeLa, Petroselinyl, 10 μM); 52 with Hela cells (Hela, Dodecanal, 10 μM); 6 in the test with Hela cells (Hela, Myristoleyl, 5 μM); 76 with Hela cells (Hela, Myristoleyl, 10 μM). The “mean fluorescence intensity (EGFP mRNA)” value with Hela cells (Hela, Petroselinyl, 5 μM) is on record as 25. Further, the “percentage of gene editing, GFP fluorescence intensity decrease (% of reduction)” value is given as −19% in test [1] (Palmitoleyl, 5 μM); −32% in test [1] (Palmitoleyl, 10 μM); −34% in test [1] (Palmitoleyl, 15 μM); 2% in test [1] (Petroselinyl, 5 μM); −37% in test [1] (Petroselinyl, 10 μM).
As for “Ac-RRLK*RLLRRLK*RL-NH2 (Ac-RRLK(NHNH2)RLLRRLK(NHNH2)RL-NH2; not fully specified; printed as Ac-RRLK*RLLRRLK*RL-NH2; also: K*4,K*11: native or modified lysine (ε-amide to a linker)) [Peptide 13.2]”, the “mean fluorescence intensity (EGFP mRNA)” value in the test with Hela cells (HeLa, Oleyl, 5 μM) worked out at 273. In addition, the “percentage of gene editing, GFP fluorescence intensity decrease (% of reduction)” value in test [1] (Dodecanal, 5 μM) is listed as −23%; in test [1] (Dodecanal, 10 μM), −26%; in test [1] (Oleyl, 10 μM), −10%; in test [1] (Oleyl, 15 μM) it was −13%.
As for “Ac-RHLK*RHK*RRLK*RH-NH2 (Ac-RHLKRHKRRLKRH-NH2; not fully specified (residues 4, 7, 11); printed as Ac-RHLK*RHK*RRLK*RH-NH2; also: linker on K* not given here) [13(3His)]”, the “mean fluorescence intensity (EGFP mRNA)” value was 621 in the test with Hela cells (HeLa, Myristoleyl, 2.5 μM); 640 with Hela cells (HeLa, Petroselinyl, 2.5 μM); 178 with Hela cells (HeLa, Petroselinyl, 10 μM); 208 in the test with Hela cells (Hela, Petroselinyl, 5 μM). For the same compound, the “percentage of gene editing, GFP fluorescence intensity decrease (% of reduction)” value in test [1] (Dodecanal, 5 μM) is listed as −4%; in test [1] (Myristoleyl, 5 μM), −13%; in test [1] (Palmitoleyl, 5 μM), −16%; in test [1] (Palmitoleyl, 15 μM) it was −47%; in test [1] (Petroselinyl, 5 μM), 21%; in test [1] (Petroselinyl, 10 μM), 4%. Moreover, the “percentage of gene editing, GFP fluorescence intensity decrease (% of reduction)” value in test [1] (Petroselinyl, 15 μM) is on record as −13%.
As for `CC(=O)N[C@@H](CCCNC(=N)N)C(=O)N[C@@H](CCCCNC(=O)CCCC(=O)NN)C(=O)N[C@@H](Cc1c[nH]cn1)C(=O)N[C@@H](CCCNC(=N)N)C(=O)N[C@@H](CCCCNC(=O)CCCC(=O)NN)C(=O)N[C@@H](CCCCNC(=O)CCCC(=O)NN)C(=O)N[C@@H](Cc1c[nH]cn1)C(N)=O` [7.3(L-H), Ac-RK*HRK*K*H-NH2] (Ac-RK([Glutaryl-NHNH2])HRK([Glutaryl-NHNH2])K([Glutaryl-NHNH2])H-NH2), the “mean fluorescence intensity (EGFP mRNA)” value in the test on Hela cells (HeLa, Myristoleyl, 2.5 μM) was found to be 30978; in the test with Hela cells (HeLa, Oleyl, 2.5 μM), 13495; in the test on Hela cells (HeLa, Oleyl, 5 μM) it was 16633; with Hela cells (HeLa, Palmitoleyl, 2.5 μM) it was 46778; in the test with Hela cells (HeLa, Petroselinyl, 2.5 μM) it was 15046; in the test with Hela cells (HeLa, Petroselinyl, 10 μM) it was 2234. Further, the “mean fluorescence intensity (EGFP mRNA)” value with Hela cells (Hela, Myristoleyl, 5 μM) is 3346; in the test with Hela cells (Hela, Palmitoleyl, 5 μM), 21109; in the test with Hela cells (Hela, Palmitoleyl, 10 μM), 1577; in the test on Hela cells (Hela, Petroselinyl, 5 μM), 28395. Besides, the “mRNA delivery relative to Lipofectamine MessengerMAX” value with Hela cells (HeLa, myristoleyl, palmitoleyl or petroselinyl aldehydes) was “between two and three times better”. Besides, the “percentage of gene editing, GFP fluorescence intensity decrease (% of reduction)” value in test [1] (Myristoleyl, 5 μM) is −6%; in test [1] (Oleyl, 5 μM) it was −5%; in test [1] (Oleyl, 10 μM), 6%; in test [1] (Oleyl, 15 μM), 0%; in test [1] (Palmitoleyl, 5 μM), 23%; in test [1] (Palmitoleyl, 10 μM), −5%. In addition, the “percentage of gene editing, GFP fluorescence intensity decrease (% of reduction)” value is recorded as −2% in test [1] (Palmitoleyl, 15 μM) and 1% in test [1] (Petroselinyl, 5 μM).
For the compound “Ac-RRHK*RLK*RRLK*RL-NH2 (Ac-RRHK(NHNH2)RLK(NHNH2)RRLK(NHNH2)RL-NH2; not fully specified; printed as Ac-RRHK*RLK*RRLK*RL-NH2; also: K*4,K*7,K*11: native or modified lysine (ε-amide to a linker)) [13(Leu-His)]”, the “mean fluorescence intensity (EGFP mRNA)” value in the test with Hela cells (HeLa, Petroselinyl, 10 μM) turned out to be 45; in the test with Hela cells (Hela, Petroselinyl, 5 μM), 112. Also, the “percentage of gene editing, GFP fluorescence intensity decrease (% of reduction)” value in test [1] (Myristoleyl, 10 μM) is given as −16%; in test [1] (Oleyl, 10 μM), −4%; in test [1] (Palmitoleyl, 5 μM) it was −8%; in test [1] (Palmitoleyl, 10 μM), −33%; in test [1] (Palmitoleyl, 15 μM), −39%; in test [1] (Petroselinyl, 5 μM), 16%. Moreover, the “percentage of gene editing, GFP fluorescence intensity decrease (% of reduction)” value in test [1] (Petroselinyl, 10 μM) is reported as 7%; in test [1] (Petroselinyl, 15 μM), −32%.
